Results from ChEMBL document CHEMBL4393697, “Lipophilic efficient phenylthiazoles with potent undecaprenyl pyrophosphatase inhibitory activity” (Eur J Med Chem, 2019).
≈ marks a conversion by molar mass, not a printed value.

System: Staphylococcus aureus
Assay: Antibacterial activity against methicillin resistant Staphylococcus aureus USA400 assessed as reduction in bacterial cell growth incubated for 18 to 20 hrs by broth microdilution method
Assay type: functional

Row | Compound | MIC [µg/mL]
1 | C/C(=N\NC(=N)N)c1sc(-c2ccc(C#Cc3cc(O)ccc3C)cc2)nc1C | > 64
2 | C/C(=N\NC(=N)N)c1sc(-c2ccc(C#Cc3ccccc3N)cc2)nc1C | > 64
3 | C/C(=N\NC(=N)N)c1sc(-c2ccc(C#Cc3cccc([N+](=O)[O-])c3)cc2)nc1C | 64 (≈ 153 µM)
4 | C/C(=N\NC(=N)N)c1sc(-c2ccc(C#Cc3ccncc3)cc2)nc1C | > 64
5 | C/C(=N\NC(=N)N)c1sc(-c2ccc(C#Cc3csc(C)c3C)cc2)nc1C | 16 (≈ 39.3 µM)
6 | C/C(=N\NC(=N)N)c1sc(-c2ccc(C#Cc3ccc(C)cc3)cc2)nc1C | 32 (≈ 82.6 µM)
7 | C/C(=N\NC(=N)N)c1sc(-c2ccc(C#Cc3ccc(C(=O)O)c(C)c3)cc2)nc1C | > 64
8 | C/C(=N\NC(=N)N)c1sc(-c2ccc(C#Cc3ccc(C(N)=O)cc3)cc2)nc1C | > 64
